The values below come from ChEMBL document CHEMBL1130144, “Ras farnesyltransferase: a new therapeutic target” (J Med Chem, 1997).

One may read the Ki as the dissociation constant of the complex between target and ligand, obtained from inhibition or displacement. Read a low Ki as a stronger hold on the target. By IC50 is commonly meant the concentration that inhibits the measured activity by half. Read a high IC50 as weaker potency in that assay. What is called T/C is the ratio of treated to control.

The target in assay [1] is T1, Protein farnesyltransferase (Mus musculus) (UniProt Q61239+Q8K2I1). The assay is described as follows: Inhibition of Ras-processing in H-Ras transformed NIH3T3 fibroblasts. The format is functional, cell-based.
In assay [2] the target is T2, Protein farnesyltransferase (Homo sapiens, UniProt P49354+P49356). Nature of the assay: Inhibitory activity against farnesyl pyrophosphate. Format: protein-complex assay.
Assay [3] addresses T2, Protein farnesyltransferase. Nature of the assay: Activity against Farnesyltransferase. Format: protein-complex assay.
For assay [4] the target is unchanged. Nature of the assay: Inhibitory activity against Ras Farnesyltransferase. Format: protein-complex assay.
The target is the same in assay [5]. Nature of the assay: Activity against human Farnesyltransferase. The format is protein-complex assay.
Assay [6] is filed under the species Mus musculus. The assay is described as follows: Concentration causing regression of MMTV-v-Ras mice bearing palpable tumors. The format is functional, organism-based.
The target in assay [7] is T3, Protein farnesyltransferase (Rattus norvegicus, UniProt Q02293+Q04631). The assay is described as follows: Activity against rat Farnesyltransferase. Format: protein-complex assay.
For assay [8], the system named is NIH3T3. Nature of the assay: Inhibition in clonogenic assay against H-Ras-transformed NIH3T3 cells. The format is functional, cell-based. Conditions: Mus musculus.
Assay [9] deals with NIH3T3. The assay is described as follows: Inhibitory activity against Ha-Ras-transformed NIH3T3 cells. Format: functional, Mus musculus.
In assay [10] the target is Protein farnesyltransferase (Bos taurus, UniProt P29702+P49355). The assay is described as follows: Activity against bovine Farnesyltransferase. Format: protein-complex assay.
Assay [11] addresses Protein farnesyltransferase (Mus musculus, UniProt Q61239+Q8K2I1). Nature of the assay: Inhibition of Ras processing. Format: functional.
Assay [12] addresses Geranylgeranyl transferase type I (Homo sapiens, UniProt P49354+P53609). Nature of the assay: Activity against Geranylgeranyl transferase type I. The format is protein-complex assay.
The target in assay [13] is T4, Farnesyltransferase (Saccharomyces cerevisiae S288c, UniProt P22007+P29703).
T4 sequence (P29703 whole entry): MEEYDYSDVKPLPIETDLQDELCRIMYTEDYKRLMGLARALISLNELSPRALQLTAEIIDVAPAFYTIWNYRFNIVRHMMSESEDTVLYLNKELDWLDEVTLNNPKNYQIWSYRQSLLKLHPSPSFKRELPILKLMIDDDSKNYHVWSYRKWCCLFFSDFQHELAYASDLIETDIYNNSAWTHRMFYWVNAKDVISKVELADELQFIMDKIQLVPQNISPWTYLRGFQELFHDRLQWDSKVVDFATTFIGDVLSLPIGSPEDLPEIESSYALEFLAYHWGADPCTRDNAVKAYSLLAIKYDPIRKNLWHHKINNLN
T4 sequence (P22007 whole entry): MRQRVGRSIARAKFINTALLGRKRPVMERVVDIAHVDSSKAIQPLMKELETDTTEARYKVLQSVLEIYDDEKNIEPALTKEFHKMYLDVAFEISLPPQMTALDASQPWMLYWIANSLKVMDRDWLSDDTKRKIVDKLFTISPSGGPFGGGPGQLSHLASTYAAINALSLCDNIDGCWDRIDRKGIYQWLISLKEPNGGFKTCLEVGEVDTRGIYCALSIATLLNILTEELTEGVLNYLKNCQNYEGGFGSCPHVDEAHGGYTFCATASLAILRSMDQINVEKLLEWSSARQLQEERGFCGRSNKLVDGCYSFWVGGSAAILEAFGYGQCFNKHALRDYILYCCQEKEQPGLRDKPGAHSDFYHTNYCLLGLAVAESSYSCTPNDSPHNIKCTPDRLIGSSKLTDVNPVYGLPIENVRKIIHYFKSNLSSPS
Nature of the assay: Activity against yeast Farnesyltransferase. The format is protein-complex assay.

Assay [14] relates to Mus musculus. The assay is described as follows: Activity against H-Ras-transformed rat-1 tumor cells implanted intraperitoneally in athymic mice. The format is functional.
Assay [15] deals with T3, Protein farnesyltransferase. Nature of the assay: Activity against rat brain Farnesyltransferase.
For assay [16], the target named is T1, Protein farnesyltransferase (Mus musculus). Nature of the assay: Concentration disrupting H-Ras processing in human H-Ras BALB/c 3T3 cells. Format: functional, cell-based.

As for `CC(C)=CCC/C(C)=C/CC/C(C)=C/C(O)P(=O)(O)O` (configuration not stated), the Concentration in [1] was determined as 1 µM. Besides, the affinity in [2], expressed as Ki, was 5.2 nM. As for `CC(C)=CCC/C(C)=C/CC/C(C)=C/CONC(=O)COP(=O)(O)O`, the IC50 in assay [3] was 75 nM. The compound `CC(C)=CCC/C(C)=C/CC/C(C)=C/C(=O)NC(CCC(=O)N[C@H](C(=O)N[C@@H](CC(C)C)C(=O)N[C@@H](CO)C(=O)O)C(C)C)C(=O)O` (some centres not stated) returned an IC50 in assay [4] of 33 nM. In assay [5], `CCCCCCCCCCCCCC/C(C(=O)O)=C(\C)C(=O)O` [CHAETOMELLIC ACID A] had an IC50 of 60 nM. `CN(C(=O)[C@@H](Cc1c[nH]cn1)NC(=O)OCc1ccccc1)[C@@H](Cc1ccc(OCc2ccccc2)cc1)C(=O)NCCOCc1ccccc1` registered a Concentration in [1] of 2.5 µM.

Take `CC[C@H](C)[C@@H](CO[C@@H](Cc1ccccc1)C(=O)N[C@@H](CCS(C)(=O)=O)C(=O)OC(C)C)NC[C@@H](N)CS`: the Concentration in assay [6] stood at 40 mg/kg.

Consider `CSCC[C@H](NC(=O)[C@@H]1Cc2ccccc2CN1C(=O)[C@@H](NCCc1cnc[nH]1)C(C)C)C(=O)O`, for which the IC50 amounted to 0.79 nM in assay [7] and 3800 nM in assay [8].

Compound `COC(=O)C(CCSC)NC(=O)CN1C(=O)[C@H](N(C)C(=O)[C@H](N)CS)NC(c2ccccc2)c2ccccc21` (some centres not stated) had an IC50 in assay [7] of 0.85 nM. In assay [3], `CC(C)=CCC/C(C)=C/CC/C(C)=C/CONC(=O)CP(=O)(O)OCOC(=O)C(C)(C)C` came in with an IC50 of 2610 nM. `COCC[C@@H]1CN(C(=O)c2cccc3ccccc23)CCN1C[C@H](N)CS` registered an IC75 in assay [9] of 40 mg/kg. The IC50 was 5 nM in assay [10], 500 nM in assay [11] and 10000 nM in assay [12]. Take `CC(C)=CCC/C(C)=C/CC/C(C)=C/CCP(=O)(O)CP(=O)(O)O`: the Concentration in assay [1] is 1 µM. The same compound gave a Ki in assay [2] of 830 nM.

`COC1=C(N)C(=O)c2nc(-c3nc(C(=O)O)c(C)c(-c4cccc(OC)c4O)c3N)ccc2C1=O`: in assay [3], the IC50 is 21000 nM. `CCC(C)[C@@H](CO[C@@H](Cc1ccccc1)C(=O)N[C@@H](CCS(C)(=O)=O)C(=O)O)NC[C@@H](N)CS` (some centres not stated) showed an IC50 in assay [10] of 240 nM. In turn, `O=C(CN(Cc1ccc(OCc2ccccc2)cc1)C(=O)[C@H](Cc1c[nH]cn1)NC(=O)OCc1ccccc1)NCCOCc1ccccc1` came in with an IC50 in assay [3] of 260 nM. In assay [1], this compound showed a Concentration of 1 µM. In assay [10], `CCC(=O)O[C@H](C[C@@]1(C)[C@H](C)CCC(=O)[C@@H]1C)/C(C)=C/Cc1c(O)cc(C)c(C=O)c1O` [CYLINDROL A] gave an IC50 of 2200 nM. In assay [13], `CCCCC(C)/C=C(C)/C=C(\C)CC(=O)NC1=CC(O)(/C=C/C=C/C=C/C(=O)NC2=C(O)CCC2=O)C2OC2C1=O` (configuration not stated) displayed an IC50 of 5000 nM. On to `COC(=O)[C@H](CCSC)NC(=O)[C@@H]1Cc2ccccc2CN1C(=O)[C@@H](NC[C@@H](N)CS)C(C)(C)C`, for which the IC50 in [7] amounted to 85 nM; in [12], 200 nM. This compound also came in with a T/C in assay [14] of 154%. `CCC/C=C\c1ccccc1/C=C/C(=O)N[C@H](Cc1ccc(O)cc1)C(=O)N(C)C(Cc1ccc(OC)c(O)c1Cl)C(=O)N(C)[C@@H](Cc1ccccc1)C(=O)OC[C@@H]1NC(=O)CNC1=O` (some centres not stated) showed an IC50 in [5] of 100 nM.

In turn, `N[C@@H](CS)CNc1ccc(-c2cccc(C(=O)O)c2)cc1` returned an IC50 in assay [15] of 50 nM. Further, the Concentration in [16] worked out at 50 µM. Consider `CN(C(=O)[C@@H](Cc1cnc[nH]1)NC(=O)OCc1ccccc1)[C@@H](Cc1ccc(OCc2ccccc2)cc1)C(=O)NCCOCc1ccccc1`, for which the IC50 in assay [3] is 400 nM. As for `O=C1C=C[C@]23Oc4ccc(O)c5c4[C@](Oc4cccc1c42)(O3)C1OC1C5=O` (some centres not stated) [PREUSSOMERIN], in [10], 1200 nM corresponded to half-maximal inhibition (IC50). Consider `CC(C)=CCC/C(C)=C/CC/C(C)=C/CNC(=O)C(COP(=O)(O)O)C(=O)O` (configuration not stated), for which the IC50 in assay [3] is 83 nM.
